Measured values reported in patent US4146622A, “Aziridinyl quinone anti-transplanted tumor agents” (priority 1977, dated 1979).
Values after ≈ are worked out from the molar mass of the structure shown. Values joined by “and” are separate entries in the source; they are usually repeats but may differ in a detail not shown here. Equal values may be shown once. “Also recorded” adds a separate entry of the source. Read-outs that look alike come from different tables or passages of the source.

Columns and labels:
[1] = test system: B16 melanocarcinoma; experiment: Intraperitoneal B16 melanocarcinoma transplanted mouse tumor test; assay type: in vivo, murine; conditions: for ILS (increase in life span): Table II
Text: (§1) ^b Ip tumor implantation, ip QD1-9 treatment schedule.
(§2) The L1210, P388 and B16 test systems described in Table II utilize intraperitoneal (IP) tumor implantation and IP drug treatment while the Lewis lung system employs subcutaneous tumor implantation and IP treatment.
(§3) Aqueous saline solution (0.9%) was used as the drug vehicle. Normally, five doses were employed per experiment with the top dose chosen to produce toxicity. The lower doses were 50% of each preceeding dose.
(§4) Consistent with NCI antitumor test protocols, intraperitoneal (IP) administration of the drug was employed with all five tumor systems investigated. Tumor implantation was IP in the systems designated IP leukemia L1210 and P388 as well as B16 melanoma.

[2] = Room temperature water solubility; assay type: physicochemical
How it was run: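 Water added incrementally by pipet, with shaking, to a weighed amount of compound at room temperature until dissolved; values are approximate.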

[3] = test system: lymphoid leukemia L1210; experiment: Intracerebral (IC) lymphoid leukemia L1210 test; assay type: in vivo, murine; conditions: for ILS (increase in life span): Table III
Text: (§5) ^b Ic tumor implantation, ip QD1-9 treatment schedule.
(§6) The L1210, P388 and B16 test systems described in Table II utilize intraperitoneal (IP) tumor implantation and IP drug treatment while the Lewis lung system employs subcutaneous tumor implantation and IP treatment. All three CNS tumor models (Table III) use intracerebral (IC) tumor implantation and IP treatment.
Consistent with NCI antitumor test protocols, intraperitoneal (IP) administration of the drug was employed with all five tumor systems investigated. Tumor implantation was IP in the systems designated IP leukemia L1210 and P388 as well as B16 melanoma. Intracerebral (IC) tumor implantation was utilized in the IC L1210 and ependymoblastoma tumor systems.

[4] = test system: transplanted mouse tumor test systems; experiment: Transplanted mouse tumor test systems (overall statement); assay type: in vivo, murine
Text: The criterion for minimum activity is defined here as follows: intraperitoneal and intracerebral L1210 leukemia, 25%; intraperitoneal and intracerebral P388 leukemia, 25%; B16 melanoma, 40%; Lewis lung carcinoma, 25%; and intracerebral ependymoblastoma, 40%.
as §6
(§7) The criterion for minimum activity, %ILS, is defined here as follows: Intraperitoneal and intracerebral leukemia L1210 and intraperitoneal leukemia P388, 25%; intraperitoneal B16 melanoma and intracerebral ependymoblastoma, 40%. Consistent with NCI antitumor test protocols, intraperitoneal (IP) administration of the drug was employed with all five tumor systems investigated. Tumor implantation was IP in the systems designated IP leukemia L1210 and P388 as well as B16 melanoma. Intracerebral (IC) tumor implantation was utilized in the IC L1210 and ependymoblastoma tumor systems.

[5] = Octanol/H2O partition coefficient (log P); assay type: physicochemical; conditions: partition coefficient measured
Text: ^(b) Octanol/H2 O values determined by C. Hansch and M. Yamakawa

[6] = test system: P388 lymphocytic leukemia; experiment: Intracerebral (IC) lymphocytic leukemia P388 test; assay type: in vivo, murine; conditions: for ILS (increase in life span): Table III
Text: as §5
Central nervous system antitumor activity is given in Table III for the intracerebrally implanted L1210, P388, and ependymoblastoma tumor systems.
All three CNS tumor models (Table III) use intracerebral (IC) tumor implantation and IP treatment.

[7] = test system: lymphoid leukemia L1210; experiment: Intraperitoneal (IP) lymphoid leukemia L1210 transplanted mouse tumor test; assay type: in vivo, murine; conditions: for ILS (increase in life span) / T - C (average weight change of test group minus control): Table II; for T - C (average weight change of test group minus control): day 5
Text: ^(a) Day 1-9 treatment schedule (9 injections)
^(b) Day 1,5,9 treatment schedule (3 injections)
^(c) Day 1 only treatment schedule (1 injection)
^(f) Percentage increase in life span of treated animals [(treated
survival .div. control survival) × 100%] - 100%

[8] = test system: Lewis lung carcinoma; experiment: Lewis lung carcinoma, subcutaneous tumor implantation; assay type: in vivo, murine
Text: ^c Subcutaneous tumor implantation, ip QD5-15 treatment schedule.
as §2

[9] = test system: IP ascites tumor systems (leukemia L1210 and P388); experiment: IP ascites tumor systems (leukemia L1210 and P388); assay type: in vivo, murine
Text: as §7

[10] = test system: P388 lymphocytic leukemia; experiment: Intraperitoneal (IP) lymphocytic leukemia P388 transplanted mouse tumor test; assay type: in vivo, murine
Text: as §1, §2, §3, §4

[11] = test system: ependymoblastoma; experiment: Intracerebral (IC) ependymoblastoma (EM) brain tumor test; assay type: in vivo, murine; conditions: for ILS (increase in life span) / T - C (average weight change of test group minus control) / Cures (animals alive per six on day of termination): Table III; for ILS (increase in life span) / T - C (average weight change of test group minus control): ic ependymoblastoma; for T - C (average weight change of test group minus control): day 5
[12] = IP L1210, ip QD1-9, 0.88 mg/kg/injection
[13] = IP L1210, ip QD1-9, 1.30 mg/kg/injection
[14] = IP L1210, ip QD1-9, 6.25 mg/kg/injection
[15] = ip QD1-5, 1.00 mg/kg/injection, expt 133 (day 99)
[16] = ip QD1-5, 1.00 mg/kg/injection, expts 136 and 144 (day 60)
[17] = ip QD1-5, 2.00 mg/kg/injection, expt 133 (day 99)
[18] = ip QD1-5, 2.00 mg/kg/injection, expts 136 and 144 (day 60)
[19] = ip QD1-5, 4.00 mg/kg/injection, expt 136 (day 60)

## CCOC(=O)NC1=C(N2CC2)C(=O)C(NC(=O)OCC)=C(N2CC2)C1=O [Compound 9, 2,5-Diaziridinyl-3,6-bis (carboethoxyamino)-1,4-benzoquinone]
[1]; B16
  OD (optimum dose): 3.12 mg/kg
[1]; B16 melanoma
  antitumor activity: very active
[1]; OD of 3.12 mg/kg
  B16 melanoma activity (ILS): ≤ 70%
[1]; B16, ip QD1-9, 1.56 mg/kg/injection
  ILS (increase in life span): 38% and 44% and 58%
[1]; B16, ip QD1-9, 3.12 mg/kg/injection
  ILS (increase in life span): 58% and 43% and 70%
[1]; Table IV, (IP) B16, QD1-9
  OD (optimum dose): 3 mg/kg/injection
[1]; Table IV, (IP) B16, QD1-9, at OD
  % ILS: 94% and 70% and 62%
[1]; Table XI, outstanding activity
  ILS (%) B16: 70%
[2]
  solubility: appeared to be adequate
[2]; water, approximate, read-out: aqueous solubility
  solubility: ~500 µg/mL (≈ 1370 µM)
[3]; IC L1210
  OD (optimum dose): 3.12 mg/kg
  antitumor activity: substantial
[3]; IC L1210, OD 3.12 mg/kg
  ILS: 79% and 84%
[3]; ic L1210, ip QD1-9, 1.56 mg/kg/injection
  ILS (increase in life span): 51% and 46%
[3]; ic L1210, ip QD1-9, 3.12 mg/kg/injection
  ILS (increase in life span): 84% and 79%
[3]; ic L1210, ip QD1-9, 6.25 mg/kg/injection
  ILS (increase in life span): 10% and 3%
[3]; Table IV, (IC) L1210, QD1-9
  OD (optimum dose): 3 mg/kg/injection and 5 mg/kg/injection
[3]; Table IV, (IC) L1210, QD1-9, at OD
  % ILS: 84% and 79% and 63% and 58%
[3]; Table XI, outstanding activity
  ILS (%) IC L1210: 84%
[4]
  toxicity: reasonably toxic material
[4]; IC and other transplanted mouse tumor systems
  antitumor activity: very substantial activity; also recorded: Antitumor activity was observed; also recorded: intracerebral (IC) as well as IP antitumor activity
[4]; last three systems (P388, B16, Lewis lung)
  TR (therapeutic ratio): 3-4
[5]
  log P: 0.05
[6]; IC P388
  antitumor activity: substantial
[6]; ic P388, ip QD1-9, 0.39 mg/kg/injection
  ILS (increase in life span): 7% and 2%
[6]; ic P388, ip QD1-9, 0.78 mg/kg/injection
  ILS (increase in life span): 27% and 25%
[6]; ic P388, ip QD1-9, 1.56 mg/kg/injection
  ILS (increase in life span): 37% and 51%
[6]; ic P388, ip QD1-9, 3.12 mg/kg/injection
  ILS (increase in life span): 39% and 31%
[6]; Table IV, (IC) P388, QD1-9
  OD (optimum dose): 1.5 mg/kg/injection and 3 mg/kg/injection
[6]; Table IV, (IC) P388, QD1-9, at OD
  % ILS: 51% and 39%
[7]; IP L1210, Q4D schedule
  activity (%ILS): 54%
  optimum dose: 6.25 mg/kg
[7]; IP L1210, QD1-9
  optimum dose (OD): 2 to 3 mg/kg
  therapeutic ratio (TR, highest active dose divided by lowest active dose): approximately 4
[7]; L1210, Q4D and QD1-9 schedules
  increase in life span (ILS): > 25%
[7]; L1210 system, Q4D and QD1-9 schedules
  antitumor activity: very active
[7]; [12]
  ILS (increase in life span): 32%
  T - C (average weight change of test group minus control): -1.4 grams
[7]; [13]
  ILS (increase in life span): 60%
  T - C (average weight change of test group minus control): -2.3 grams
[7]; IP L1210, ip QD1-9, 2.00 mg/kg/injection
  ILS (increase in life span): 101% and 125%
[7]; [14]
  ILS (increase in life span): 27%
  T - C (average weight change of test group minus control): -4.1 grams
[7]; IP L1210, ip QD1-9, 12.50 mg/kg/injection
  T - C (average weight change of test group minus control): -5.0 grams
[7]; Table IV, (IP) L1210, QD1-9
  OD (optimum dose): 3 mg/kg/injection and 2 mg/kg/injection and 4 mg/kg/injection
[7]; Table IV, (IP) L1210, QD1-9, at OD
  % ILS: 169% and 113% and 101% and 100%
[7]; Table XI, outstanding activity
  ILS (%) IP L1210: 169%
[7]; standard IP L1210 test, QD1-9
  ILS: > 100%
[8]; Lewis lung
  antitumor activity: Marginal activity
[8]; Table II, sc Lewis lung, ip QD5-15, 2.00 mg/kg/injection
  ILS (increase in life span): 38% and 34%
[9]
  antitumor activity: does not give multiple cures
[10]; IP P388
  OD (optimum dose): 1 to 2 mg/kg
  antitumor activity: very active
[10]; Table II, IP P388, ip QD1-9, 0.78 mg/kg/injection
  ILS (increase in life span): 111% and 99% and 112%
[10]; Table II, IP P388, ip QD1-9, 1.56 mg/kg/injection
  ILS (increase in life span): 138% and 135% and 112%
[10]; Table II, IP P388, ip QD1-9, 6.25 mg/kg/injection, day 5
  T - C (average weight change of test group minus control): -6.1 grams
[10]; Table IV, (IP) P388, QD1-9
  OD (optimum dose): 1.6 mg/kg/injection and 0.8 mg/kg/injection
[10]; Table IV, (IP) P388, QD1-9, at OD
  % ILS: 138% and 135% and 112%
[10]; Table IV, (IP) P388, QD1-9, at OD, day 30
  survivors of 6 test mice on experiment termination day: 1
[10]; Table XI, outstanding activity
  ILS (%) P388: 138%
[10]; Table XI, per 6 test animals, day 30
  survivors (number in parentheses) P388: 1
[11]; IC ependymoblastoma (EM)
  antitumor activity: curative; also recorded: very active
[11]; ip QD1-5, 0.25 mg/kg/injection
  ILS (increase in life span): 30%
  T - C (average weight change of test group minus control): -1.5 grams
[11]; ip QD1-5, 0.50 mg/kg/injection
  ILS (increase in life span): 62%
  T - C (average weight change of test group minus control): -1.8 grams
[11]; [15]
  ILS (increase in life span): 348%
  Cures (animals alive per six on day of termination): 3/6
[11]; [16]
  ILS (increase in life span): 126% and 171%
  Cures (animals alive per six on day of termination): 1/6 and 5/6
[11]; [17]
  ILS (increase in life span): 349%
  Cures (animals alive per six on day of termination): 4/6
[11]; [18]
  ILS (increase in life span): 277% and 171%
  Cures (animals alive per six on day of termination): 5/6
[11]; [19]
  ILS (increase in life span): 276%
  Cures (animals alive per six on day of termination): 4/6
[11]; ip QD1-5, 8.00 mg/kg/injection
  T - C (average weight change of test group minus control): -5.0 grams
[11]; Table IV, (IC) ependymoblastoma, QD1-5
  OD (optimum dose): 2 mg/kg/injection and 1 mg/kg/injection
[11]; Table IV, (IC) ependymoblastoma, QD1-5, at OD
  % ILS: > 277% and > 202% and > 172% and > 171%
[11]; Table IV, (IC) ependymoblastoma, QD1-5, at OD, day 60
  survivors of 6 test mice on experiment termination day: 5 and 4 and 6
[11]; Table XI, per 6 test animals, day 60
  survivors (number in parentheses) EM: 5
[11]; ependymoblastoma
  TR (therapeutic ratio): 4-8
  optimum dose: 1 to 2 mg/kg
[11]; experiment 133, 2.0 mg/kg, day 99
  survival: A majority of the test animals were alive on day 99
